Reference: patent publication US20070128217A1 (priority 2003, published 2007)

Columns and labels:
[1] = test system: antibodies in sera from SARS patients (sera 1a, 1b, 2, 6, 37, 62, London, SARS-yellow, SARS-green); format: binding, human; design: Binding of serum 6 to linear peptides of protein X1 of SARS-CoV Urbani / Binding of serum 37 to linear peptides of protein X1 of SARS-CoV Urbani / Binding of serum 6 to looped/cyclic peptide (PEPSCAN-ELISA) / Binding of serum 37 to looped/cyclic peptide (PEPSCAN-ELISA) / Binding of serum 37 to looped/cyclic peptides of protein X1 of SARS-CoV Urbani / Binding of serum 6 to linear peptides of protein X2 / Binding of serum 37 to linear peptides of protein X2 / Binding of serum 37 to looped/cyclic peptides of protein X2 of SARS-CoV Urbani / Binding of serum 6 to linear peptides of protein M of SARS-CoV Urbani / Binding of serum 37 to linear peptides of protein M of SARS-CoV Urbani / Binding of serum 6 to looped/cyclic peptides of protein M of SARS-CoV Urbani / Binding of serum 37 to looped/cyclic peptides of protein M of SARS-CoV Urbani / Binding of serum 6 to linear peptides of protein X3 of SARS-CoV Urbani / Binding of serum 37 to linear peptides of protein X3 of SARS-CoV Urbani / Binding of serum 37 to looped/cyclic peptides of protein X3 of SARS-CoV Urbani / Binding of serum 6 to linear peptides of protein X4 of SARS-CoV Urbani / Binding of serum 37 to linear peptides of protein X4 of SARS-CoV Urbani / Binding of serum 37 to looped/cyclic peptides of protein X4 of SARS-CoV Urbani / Binding of serum 6 to linear peptides of protein X5 of SARS-CoV Urbani / Binding of serum 37 to linear peptides of protein X5 of SARS-CoV Urbani / Binding of serum 37 to looped/cyclic peptides of protein X5 of SARS-CoV Urbani / Binding of serum 6 to linear peptides of protein N of SARS-CoV Urbani / Binding of serum 37 to linear peptides of protein N of SARS-CoV Urbani / Binding of serum 6 to linear peptide (PEPSCAN-ELISA) / Binding of serum 1a to looped/cyclic peptides of protein N of SARS-CoV Urbani / Binding of serum 1b to looped/cyclic peptides of protein N of SARS-CoV Urbani / Binding of serum 2 to looped/cyclic peptides of protein N of SARS-CoV Urbani / Binding of serum 6 to looped/cyclic peptides of protein N of SARS-CoV Urbani / Binding of serum 37 to looped/cyclic peptides of protein N of SARS-CoV Urbani / Binding of serum 62 to looped/cyclic peptides of protein N of SARS-CoV Urbani / Binding of serum London to looped/cyclic peptides of protein N of SARS-CoV Urbani / Binding of serum SARS-green to looped/cyclic peptides of protein N of SARS-CoV Urbani: unit not given here
[2] = test system: control sera (pooled serum of ten healthy LUMC hospital workers; commercial negative donor pooled serum from the Dutch bloodbank); format: binding, human; design: Binding of Control serum LUMC to linear peptides / Binding of Control serum Blood-bank to linear peptides / Binding of Control serum LUMC to looped peptides / Binding of Control Serum Blood-Bank to Looped peptides / Binding of Control serum LUMC to linear peptides of the protein M of SARS-CoV Urbani / Binding of Control serum Blood-bank to linear peptides of the protein M of SARS-CoV Urbani / Binding of Control serum LUMC to looped peptides of the protein M of SARS-CoV Urbani / Binding of Control Serum Blood-Bank to Looped peptides of the protein M of SARS-CoV Urbani: unit not given here
[3] = test system: rabbit serum obtained by immunizing a rabbit with the SARS-CoV strain Frankfurt 1; format: binding; design: Binding of a rabbit serum to linear peptides / Binding of a rabbit serum to looped peptides / Rabbit serum linear peptides / Rabbit serum looped peptides / Binding of a rabbit serum to linear peptides of protein N of SARS-CoV Urbani (Rabbit serum linear peptides) / Binding of a rabbit serum to looped/cyclic peptides of protein N of SARS-CoV Urbani (Rabbit serum looped peptides): unit not given here
[4] = test system: recombinant human anti-SARS-CoV antibody 03-018; format: binding; design: Binding of antibody 03-018 to linear peptides of the N protein of SARS-CoV Urbani / Binding of antibody 03-018 to looped/cyclic peptides of the N protein of SARS-CoV Urbani: unit not given here

Row | Sequence | Binding of serum 1a to linear peptides of protein N of SARS-CoV Urbani [1] | Binding of serum 1a to looped/cyclic peptides of protein N of SARS-CoV Urbani [1] | Binding of serum 1b to linear peptides of protein N of SARS-CoV Urbani [1] | Binding of serum 1b to looped/cyclic peptides of protein N of SARS-CoV Urbani [1] | Binding of serum 2 to linear peptides of protein N of SARS-CoV Urbani [1] | Binding of serum 2 to looped/cyclic peptides of protein N of SARS-CoV Urbani [1] | Binding of serum 6 to linear peptides of protein N of SARS-CoV Urbani [1] | Binding of serum 6 to looped/cyclic peptides of protein N of SARS-CoV Urbani [1] | Binding of serum 37 to linear peptides of protein N of SARS-CoV Urbani [1] | Binding of serum 37 to looped/cyclic peptides of protein N of SARS-CoV Urbani [1] | Binding of serum 62 to linear peptides of protein N of SARS-CoV Urbani [1] | Binding of serum 62 to looped/cyclic peptides of protein N of SARS-CoV Urbani [1] | Binding of serum London to linear peptides of protein N of SARS-CoV Urbani [1] | Binding of serum London to looped/cyclic peptides of protein N of SARS-CoV Urbani [1] | Binding of serum SARS-green to linear peptides of protein N of SARS-CoV Urbani [1] | Binding of serum SARS-green to looped/cyclic peptides of protein N of SARS-CoV Urbani [1] | Binding of serum SARS-yellow to linear peptides of protein N of SARS-CoV Urbani [1] | Binding of serum SARS-yellow to looped/cyclic peptides of protein N of SARS-CoV Urbani [1] | Binding of a rabbit serum to linear peptides of protein N of SARS-CoV Urbani (Rabbit serum linear peptides) [3] | Binding of a rabbit serum to looped/cyclic peptides of protein N of SARS-CoV Urbani (Rabbit serum looped peptides) [3] | other results
1 | STDNNQNGGRNGARP | 0.2 | 0.3 | 0.1 | 0.2 | 0.2 | 0.3 | 0.1 | 0.2 | 0.8 | 0.5 | 0.7 | 0.2 | 0.5 | 0.3 | 0.4 | 0.4 | 0.6 | 0.3 | 0.1 | 0.2 | Binding of Control Serum Blood-Bank to Looped peptides [2]: 0.5; Binding of Control serum Blood-bank to linear peptides [2]: 0.7; Binding of Control serum LUMC to linear peptides [2]: 0.6; Binding of Control serum LUMC to looped peptides [2]: 0.5; Binding of antibody 03-018 to linear peptides of the N protein of SARS-CoV Urbani [4]: 0.2; Binding of antibody 03-018 to looped/cyclic peptides of the N protein of SARS-CoV Urbani [4]: 0.2
2 | TALTQHGKEELRFPR | 0.2 | 0.4 | 0.1 | 0.3 | 0.2 | 0.6 | 0.1 | 0.5 | 0.7 | 0.8 | 0.6 | 0.6 | 0.5 | 0.6 | 0.4 | 0.7 | 0.5 | 0.7 | 0.1 | 0.4 | Binding of Control Serum Blood-Bank to Looped peptides [2]: 0.8; Binding of Control serum Blood-bank to linear peptides [2]: 0.8; Binding of Control serum LUMC to linear peptides [2]: 0.6; Binding of Control serum LUMC to looped peptides [2]: 0.8; Binding of antibody 03-018 to linear peptides of the N protein of SARS-CoV Urbani [4]: 0.1; Binding of antibody 03-018 to looped/cyclic peptides of the N protein of SARS-CoV Urbani [4]: 0.3
3 | TASWFTALTQHGKEE | 0.2 | 0.2 | 0.1 | 0.1 | 0.1 | 0.1 | 0.1 | 0.1 | 0.7 | 0.4 | 0.4 | 0.2 | 0.4 | 0.3 | 0.3 | 0.1 | 0.5 | 0.2 | 0.1 | 0.7 | Binding of Control Serum Blood-Bank to Looped peptides [2]: 0.4; Binding of Control serum Blood-bank to linear peptides [2]: 0.6; Binding of Control serum LUMC to linear peptides [2]: 0.5; Binding of Control serum LUMC to looped peptides [2]: 0.3; Binding of antibody 03-018 to linear peptides of the N protein of SARS-CoV Urbani [4]: 0.1; Binding of antibody 03-018 to looped/cyclic peptides of the N protein of SARS-CoV Urbani [4]: 0.2
4 | TDEAQPLPQRQKKQP | 0.2 | 0.2 | 0.2 | 0.0 | 0.3 | 0.2 | 0.2 | 0.1 | 0.7 | 0.1 | 0.7 | 0.0 | 1.2 | 0.1 | 0.7 | 0.0 | 1.0 | 0.1 | 0.1 | 0.0 | Control Serum Blood-Bank Looped peptides [2]: 0.5; Control serum Blood-bank linear peptides [2]: 0.7; Control serum LUMC linear peptides [2]: 0.6; Control serum LUMC looped peptides [2]: 0.2; Binding of antibody 03-018 to linear peptides of the N protein of SARS-CoV Urbani [4]: 0.1; Binding of antibody 03-018 to looped/cyclic peptides of the N protein of SARS-CoV Urbani [4]: 0.1
